Data reported in the supplement of paper PMC10307832.

Columns and labels:
Assay in all cases: relative viability (nuclei count vs DMSO), 5 days (fraction); higher = more cells survive
Pemetrexed + Luminespib = compound: Nc1nc2[nH]cc(CCc3ccc(C(=O)N[C@@H](CCC(=O)O)C(=O)O)cc3)c2c(=O)[nH]1 [Pemetrexed] + CCNC(=O)c1noc(-c2cc(C(C)C)c(O)cc2O)c1-c1ccc(CN2CCOCC2)cc1 [Luminespib] (partner 0.01 µM)
In short: (§1)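 Lung cancer cell lines were pin-tool dosed in 1536-well plates on the day after seeding, with either a lone drug or a fixed anchor-drug dose plus five library-drug doses (not always all listed) in √10 steps. Nuclei were counted on 4× images after 5 days. Relative viability is the ratio of treated-well to vehicle-well nuclei counts, with each value a median of duplicate plates.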

Idelalisib + Tozasertib = compound: CC[C@H](Nc1ncnc2[nH]cnc12)c1nc2cccc(F)c2c(=O)n1-c1ccccc1 [Idelalisib] + Cc1cc(Nc2cc(N3CCN(C)CC3)nc(Sc3ccc(NC(=O)C4CC4)cc3)n2)n[nH]1 [Tozasertib] (partner 0.1 µM)
In short: as §1

Idelalisib + Bortezomib = compound: CC[C@H](Nc1ncnc2[nH]cnc12)c1nc2cccc(F)c2c(=O)n1-c1ccccc1 [Idelalisib] + CC(C)C[C@H](NC(=O)[C@H](Cc1ccccc1)NC(=O)c1cnccn1)B(O)O [Bortezomib] (partner 0.002 µM)
In short: as §1

Pemetrexed + Vorinostat = compound: Nc1nc2[nH]cc(CCc3ccc(C(=O)N[C@@H](CCC(=O)O)C(=O)O)cc3)c2c(=O)[nH]1 [Pemetrexed] + O=C(CCCCCCC(=O)Nc1ccccc1)NO [Vorinostat] (partner 1 µM)
In short: as §1

In the case of UMC-11, the relative viability (Pemetrexed + Luminespib; first compound 0.002 µM) is reported as 0.989, the relative viability (Pemetrexed + Luminespib; first compound 0.006325 µM) is reported as 0.972 and the relative viability (Pemetrexed + Luminespib; first compound 0.02 µM) is reported as 1.03. It also gave a relative viability (Pemetrexed + Luminespib; first compound 0.06325 µM) of 1.09, a relative viability (Pemetrexed + Luminespib; first compound 0.2 µM) of 0.923 and a relative viability (Idelalisib + Tozasertib; first compound 0.04 µM) of 0.218. It also gave a relative viability (Idelalisib + Tozasertib; first compound 0.1265 µM) of 0.192, a relative viability (Idelalisib + Tozasertib; first compound 0.4 µM) of 0.203 and a relative viability (Idelalisib + Tozasertib; first compound 1.265 µM) of 0.188. It also gave a relative viability (Idelalisib + Tozasertib; first compound 4 µM) of 0.192, a relative viability (Idelalisib + Bortezomib; first compound 0.04 µM) of 0.477 and a relative viability (Idelalisib + Bortezomib; first compound 0.1265 µM) of 0.858. For the same cell line, the relative viability (Idelalisib + Bortezomib; first compound 0.4 µM) was 0.744, the relative viability (Idelalisib + Bortezomib; first compound 1.265 µM) was 0.771 and the relative viability (Idelalisib + Bortezomib; first compound 4 µM) was 0.521. The relative viability (Pemetrexed + Vorinostat; first compound 0.002 µM) was 0.425, the relative viability (Pemetrexed + Vorinostat; first compound 0.006325 µM) was 0.355 and the relative viability (Pemetrexed + Vorinostat; first compound 0.02 µM) was 0.44. The relative viability (Pemetrexed + Vorinostat; first compound 0.06325 µM) was 0.347 and the relative viability (Pemetrexed + Vorinostat; first compound 0.2 µM) was 0.35.
